For assay [1], the target named is T1, Mu-type opioid receptor (Homo sapiens, UniProt P35372). The assay can be described thus: Agonist activity at human mu opioid receptor expressed in CHO cells assessed as stimulation of calcium mobilization by measuring concentration relative curve at 10 uM by Fluo-4 AM dye based analysis. The class given is functional, cell-based. In general terms: Calcium flux is commonly read through the fluorescence of an indicator in the cells.

Assay [2] deals with Nociceptin receptor (Homo sapiens, UniProt P41146). The assay can be described thus: Agonist activity at human NOP receptor expressed in CHO cells assessed as stimulation of calcium mobilization by Fluo-4 AM dye based analysis.
Chain of Nociceptin receptor (P41146 whole entry): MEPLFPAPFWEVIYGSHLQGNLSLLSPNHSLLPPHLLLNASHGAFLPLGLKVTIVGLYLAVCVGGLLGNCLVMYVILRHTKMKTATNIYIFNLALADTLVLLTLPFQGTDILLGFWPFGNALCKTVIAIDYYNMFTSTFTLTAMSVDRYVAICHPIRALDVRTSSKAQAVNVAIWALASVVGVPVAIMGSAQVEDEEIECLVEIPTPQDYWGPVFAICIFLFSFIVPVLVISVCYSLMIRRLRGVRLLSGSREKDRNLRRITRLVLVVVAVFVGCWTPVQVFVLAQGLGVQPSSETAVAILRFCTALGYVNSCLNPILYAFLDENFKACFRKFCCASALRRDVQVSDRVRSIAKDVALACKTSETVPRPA
The subject of assay [3] is CHO. In words: Concentration ratio of human NOP receptor expressed in CHO cells to human mu opioid receptor expressed in CHO cells. The format is cell-based.
The target of assay [4] is T1, Mu-type opioid receptor. In words: Agonist activity at human mu opioid receptor expressed in CHO cells assessed as stimulation of calcium mobilization by Fluo-4 AM dye based analysis.

The values below come from ChEMBL document CHEMBL5032494, “Novel Mixed NOP/Opioid Receptor Peptide Agonists” (J Med Chem, 2021).

In general, EC50 refers to the concentration at which the effect is half-maximal.

The source made the active and inactive calls. No cut-off for these calls is given here. Where a SMILES comes first, the peptide text is derived from it. [ ]: non-standard residue; d: D form. Phe(4-NO2) = N[C@@H](Cc1ccc([N+](=O)[O-])cc1)C(=O)O; Bip = N[C@@H](Cc1ccc(-c2ccccc2)cc1)C(=O)O; Phe(4-NH2) = Nc1ccc(C[C@H](N)C(=O)O)cc1; Phe(4-F) = N[C@@H](Cc1ccc(F)cc1)C(=O)O; 1Nal = N[C@@H](Cc1cccc2ccccc12)C(=O)O; 2Nal = N[C@@H](Cc1ccc2ccccc2c1)C(=O)O; Dmt = Cc1cc(O)cc(C)c1C[C@H](N)C(=O)O; hPhe = N[C@@H](CCc1ccccc1)C(=O)O; Phg = N[C@H](C(=O)O)c1ccccc1; Dab = NCC[C@H](N)C(=O)O; Abu = CC[C@H](N)C(=O)O; Dap = NC[C@H](N)C(=O)O

T1 sequence (P35372 whole entry): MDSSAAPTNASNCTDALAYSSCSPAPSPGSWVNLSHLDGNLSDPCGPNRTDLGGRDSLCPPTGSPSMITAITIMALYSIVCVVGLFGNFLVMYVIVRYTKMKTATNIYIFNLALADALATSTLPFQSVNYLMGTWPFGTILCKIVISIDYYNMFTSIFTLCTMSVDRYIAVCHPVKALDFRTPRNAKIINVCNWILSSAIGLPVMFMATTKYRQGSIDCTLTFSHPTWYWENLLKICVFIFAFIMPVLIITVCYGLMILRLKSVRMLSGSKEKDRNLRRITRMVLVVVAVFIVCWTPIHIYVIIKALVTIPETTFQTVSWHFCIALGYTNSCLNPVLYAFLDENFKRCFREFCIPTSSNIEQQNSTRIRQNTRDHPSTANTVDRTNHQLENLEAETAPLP

As to H-YGGFNGARKSARK-NH2, the pEC50 entry in assay [1] is “inactive”.

With `COc1ccc(C[C@H](NC(=O)[C@H](Cc2ccccc2)NC(=O)CNC(=O)CNC(=O)[C@@H](N)Cc2ccc(O)cc2)C(=O)NCC(=O)N[C@@H](C)C(=O)N[C@@H](CCCNC(=N)N)C(=O)N[C@@H](CCCCN)C(=O)N[C@@H](CO)C(=O)N[C@@H](C)C(=O)N[C@@H](CCCNC(=N)N)C(=O)N[C@@H](CCCCN)C(N)=O)cc1` (H-YGGFY(Me)GARKSARK-NH2), the pEC50 entry in assay [1] was “inactive”. For the same compound, the 50% effective concentration (EC50) in assay [2] was 13.2 nM. In assay [3], the Ratio amounted to 0.02.

H-YGGFKGARKSARK-NH2: the pEC50 result in assay [1] is “inactive”.

For `Cc1cc(O)cc(C)c1C[C@H](N)C(=O)NCC(=O)NCC(=O)N[C@@H](Cc1ccccc1)C(=O)N[C@H](C(=O)NCC(=O)N[C@@H](C)C(=O)N[C@@H](CCCNC(=N)N)C(=O)N[C@@H](CCCCN)C(=O)N[C@@H](CO)C(=O)N[C@@H](C)C(=O)N[C@@H](CCCNC(=N)N)C(=O)N[C@@H](CCCCN)C(N)=O)c1ccccc1` (H-[Dmt]GGF[Phg]GARKSARK-NH2), the EC50 is 112 nM in assay [2] and 2.88 nM in assay [4]. Besides, in assay [3], the Ratio was found to be 39.

As to `Cc1cc(O)cc(C)c1C[C@H](N)C(=O)NCC(=O)NCC(=O)N[C@@H](Cc1ccccc1)C(=O)N[C@@H](Cc1cccc2ccccc12)C(=O)NCC(=O)N[C@@H](C)C(=O)N[C@@H](CCCNC(=N)N)C(=O)N[C@@H](CCCCN)C(=O)N[C@@H](CO)C(=O)N[C@@H](C)C(=O)N[C@@H](CCCNC(=N)N)C(=O)N[C@@H](CCCCN)C(N)=O` (H-[Dmt]GGF[1Nal]GARKSARK-NH2), the EC50 in assay [2] is 60.3 nM; in assay [4], 15.8 nM. Also, in assay [3], the Ratio amounted to 3.8.

Regarding `C[C@H](NC(=O)CNC(=O)[C@H](CCN)NC(=O)[C@H](Cc1ccccc1)NC(=O)CNC(=O)CNC(=O)[C@@H](N)Cc1ccc(O)cc1)C(=O)N[C@@H](CCCNC(=N)N)C(=O)N[C@@H](CCCCN)C(=O)N[C@@H](CO)C(=O)N[C@@H](C)C(=O)N[C@@H](CCCNC(=N)N)C(=O)N[C@@H](CCCCN)C(N)=O` (H-YGGF[Dab]GARKSARK-NH2), the pEC50 result in assay [1] is “inactive”.

On to `CC[C@H](NC(=O)[C@H](Cc1ccccc1)NC(=O)CNC(=O)CNC(=O)[C@@H](N)Cc1ccc(O)cc1)C(=O)NCC(=O)N[C@@H](C)C(=O)N[C@@H](CCCNC(=N)N)C(=O)N[C@@H](CCCCN)C(=O)N[C@@H](CO)C(=O)N[C@@H](C)C(=O)N[C@@H](CCCNC(=N)N)C(=O)N[C@@H](CCCCN)C(N)=O` (H-YGGF[Abu]GARKSARK-NH2), for which, in assay [1], the pEC50 result was “inactive”.

For `C[C@H](NC(=O)CNC(=O)[C@H](Cc1ccc(N)cc1)NC(=O)[C@H](Cc1ccccc1)NC(=O)CNC(=O)CNC(=O)[C@@H](N)Cc1ccc(O)cc1)C(=O)N[C@@H](CCCNC(=N)N)C(=O)N[C@@H](CCCCN)C(=O)N[C@@H](CO)C(=O)N[C@@H](C)C(=O)N[C@@H](CCCNC(=N)N)C(=O)N[C@@H](CCCCN)C(N)=O` (H-YGGF[Phe(4-NH2)]GARKSARK-NH2), the figures for the EC50 in assay [2] and in assay [4] were 30.2 nM and 372 nM, respectively. Besides, the Ratio in assay [3] stood at 0.08.

Regarding `C[C@H](NC(=O)CNC(=O)[C@H](Cc1ccc([N+](=O)[O-])cc1)NC(=O)[C@H](Cc1ccccc1)NC(=O)CNC(=O)CNC(=O)[C@@H](N)Cc1ccc(O)cc1)C(=O)N[C@@H](CCCNC(=N)N)C(=O)N[C@@H](CCCCN)C(=O)N[C@@H](CO)C(=O)N[C@@H](C)C(=O)N[C@@H](CCCNC(=N)N)C(=O)N[C@@H](CCCCN)C(N)=O` (H-YGGF[Phe(4-NO2)]GARKSARK-NH2), in assay [1], the pEC50 result is “inactive”. Moreover, the EC50 in assay [2] was 49 nM. Moreover, the Ratio in assay [3] is 0.06.

As for `Cc1cc(O)cc(C)c1C[C@H](N)C(=O)NCC(=O)NCC(=O)N[C@@H](Cc1ccccc1)C(=O)N[C@@H](Cc1ccc(N)cc1)C(=O)NCC(=O)N[C@@H](C)C(=O)N[C@@H](CCCNC(=N)N)C(=O)N[C@@H](CCCCN)C(=O)N[C@@H](CO)C(=O)N[C@@H](C)C(=O)N[C@@H](CCCNC(=N)N)C(=O)N[C@@H](CCCCN)C(N)=O` (H-[Dmt]GGF[Phe(4-NH2)]GARKSARK-NH2), the EC50 is 26.3 nM in assay [2] and 15.1 nM in assay [4]. In assay [3], the Ratio stood at 1.73.

H-YGGFHGARKSARK-NH2: in assay [1], the pEC50 entry is “inactive”.

For the compound `C[C@H](NC(=O)CNC(=O)[C@H](Cc1ccc2ccccc2c1)NC(=O)[C@H](Cc1ccccc1)NC(=O)CNC(=O)CNC(=O)[C@@H](N)Cc1ccc(O)cc1)C(=O)N[C@@H](CCCNC(=N)N)C(=O)N[C@@H](CCCCN)C(=O)N[C@@H](CO)C(=O)N[C@@H](C)C(=O)N[C@@H](CCCNC(=N)N)C(=O)N[C@@H](CCCCN)C(N)=O` (H-YGGF[2Nal]GARKSARK-NH2), the pEC50 entry in assay [1] was “inactive”.

H-YGGFTGARKSARK-NH2: in assay [1], the pEC50 entry is “inactive”. The Ratio in assay [3] was under 0.001.

Consider `Cc1cc(O)cc(C)c1C[C@H](N)C(=O)NCC(=O)NCC(=O)N[C@@H](Cc1ccccc1)C(=O)N[C@@H](Cc1ccccc1)C(=O)NCC(=O)N[C@@H](C)C(=O)N[C@@H](CCCNC(=N)N)C(=O)N[C@@H](CCCCN)C(=O)N[C@@H](CO)C(=O)N[C@@H](C)C(=O)N[C@@H](CCCNC(=N)N)C(=O)N[C@@H](CCCCN)C(N)=O` (H-[Dmt]GGFFGARKSARK-NH2), for which the EC50 in assay [2] is 56.2 nM; in assay [4], 6.46 nM. In addition, the Ratio in assay [3] was 8.71.

On to `C[C@H](NC(=O)CNC(=O)[C@H](Cc1ccc(F)cc1)NC(=O)[C@H](Cc1ccccc1)NC(=O)CNC(=O)CNC(=O)[C@@H](N)Cc1ccc(O)cc1)C(=O)N[C@@H](CCCNC(=N)N)C(=O)N[C@@H](CCCCN)C(=O)N[C@@H](CO)C(=O)N[C@@H](C)C(=O)N[C@@H](CCCNC(=N)N)C(=O)N[C@@H](CCCCN)C(N)=O` (H-YGGF[Phe(4-F)]GARKSARK-NH2), for which the pEC50 result in assay [1] is “inactive”. Further, the EC50 in assay [2] was 49 nM. Besides, the Ratio in assay [3] is 0.06.

On to `C[C@H](NC(=O)CNC(=O)[C@H](CN)NC(=O)[C@H](Cc1ccccc1)NC(=O)CNC(=O)CNC(=O)[C@@H](N)Cc1ccc(O)cc1)C(=O)N[C@@H](CCCNC(=N)N)C(=O)N[C@@H](CCCCN)C(=O)N[C@@H](CO)C(=O)N[C@@H](C)C(=O)N[C@@H](CCCNC(=N)N)C(=O)N[C@@H](CCCCN)C(N)=O` (H-YGGF[Dap]GARKSARK-NH2), for which, in assay [1], the pEC50 entry is “inactive”.

In the case of `C[C@H](NC(=O)CNC(=O)[C@H](CCc1ccccc1)NC(=O)[C@H](Cc1ccccc1)NC(=O)CNC(=O)CNC(=O)[C@@H](N)Cc1ccc(O)cc1)C(=O)N[C@@H](CCCNC(=N)N)C(=O)N[C@@H](CCCCN)C(=O)N[C@@H](CO)C(=O)N[C@@H](C)C(=O)N[C@@H](CCCNC(=N)N)C(=O)N[C@@H](CCCCN)C(N)=O` (H-YGGF[hPhe]GARKSARK-NH2), the pEC50 result in assay [1] is “inactive”.

Turning to H-YGGFK(Ac)GARKSARK-NH2, in assay [1], the pEC50 result was “inactive”.

On to H-YGGFVGARKSARK-NH2, for which the pEC50 result in assay [1] was “inactive”.

In the case of `C[C@H](NC(=O)CNC(=O)[C@H](Cc1ccc(-c2ccccc2)cc1)NC(=O)[C@H](Cc1ccccc1)NC(=O)CNC(=O)CNC(=O)[C@@H](N)Cc1ccc(O)cc1)C(=O)N[C@@H](CCCNC(=N)N)C(=O)N[C@@H](CCCCN)C(=O)N[C@@H](CO)C(=O)N[C@@H](C)C(=O)N[C@@H](CCCNC(=N)N)C(=O)N[C@@H](CCCCN)C(N)=O` (H-YGGF[Bip]GARKSARK-NH2), in assay [1], the pEC50 result was “inactive”.

As for H-YGGFWGARKSARK-NH2, the pEC50 result in assay [1] was “inactive”.
